# Tested on: Human iPSC-derived hepatocytes (iCell® Hepatocytes)
# Test: Gene expression profiling of iCell Hepatocytes by microfluidic qRT-PCR
# Type: cell-based
# Conditions: multiple doses, FIG. 1
# Description: Human iPSC-derived hepatocytes (iCell® Hepatocytes) were exposed to the compounds of formula I with the goal of identifying conditions that favor greater functionality that better models the adult organ. […] Gene expression changes were validated and confirmed in a secondary screen, and functional consequences were queried.
# Fresh iCell® Hepatocytes (day 20-23) were plated and cultured according to iCell Hepatocytes Dissociation and Plating User's Guide at 60 k cells per well in 96 well BIO Collagen IV coated plates (BD Cat#354429) 4 Hours post plating Medium C was removed and replaced with a 1:50 Matrigel (Cat#354227) overlay in Medium D. We dosed the cells at 5 uM in Medium D and 1% DMSO 24 hours post plating. Day 3, media was removed and we dosed again at 5 uM. Day 4 we Harvested RNA.
# Sample RNA was isolated using TaqMan® Gene Expression Cells-to-CT™ Kit (Life Technologies Cat#4387299) froze at −80 C at various time points post compound treatment. All samples were processed by microfluidic quantitative PCR using the Biomark Fluidigm 96.96 chips (BMK-M-96.96) and ABI Taqman probes. Normalization and model-based expression measurements were calculated using the Biogazelle qBASE and Genorm software. […] Expression values are calculated by the fold change over vehicle control. […]
smiles,measurement,value
"O=C(NCc1cccc(F)c1)c1cccc2nc(-c3c(NC[C@@H](O)c4ccccc4)cc[nH]c3=O)[nH]c12 [Example 1, 2-[4-((S)-2-hydroxy-2-phenyl-ethylamino)-2-oxo-1,2-dihydro-pyridin-3-yl]-3H-benzoimidazole-4-carboxylic acid 3-fluoro-benzylamide]",expression of genes spanning hepatocyte function,global increase of genes spanning hepatocyte function

# — patent US9181218B2, “Compounds for improved stem cell differentiation into hepatocytes” (Hoffmann-La Roche Inc., priority 2013, dated 2015)
